In patent US20100267561A1, “HERBICIDAL PYRIDAZINONE DERIVATIVES” (priority 2007, published 2010):

Key:
Assay type in all cases: in vivo
[1] = tested on: common mallow (Malva sylvestris); experiment: Test E pre-/postemergence plant response; conditions: scale 0 to 100
Method in brief: (§1)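 Steps: sow seeds; apply compound preemergence in a non-phytotoxic solvent/surfactant formulation; in parallel, spray the same formulation postemergence on 1- to 4-leaf plants (2–18 cm); hold 14–21 days in a greenhouse; rate visually vs controls, 0 = no effect, 100 = complete control.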

[2] = tested on: Italian ryegrass (Lolium multiflorum); experiment: Test E pre-/postemergence plant response; conditions: scale 0 to 100
Method in brief: as §1

[3] = tested on: common purslane (Portulaca oleracea); experiment: Test E pre-/postemergence plant response; conditions: scale 0 to 100
Method in brief: as §1

[4] = tested on: guineagrass (Panicum maximum); experiment: Test E pre-/postemergence plant response; conditions: scale 0 to 100
Method in brief: as §1

[5] = tested on: dallisgrass (Paspalum dilatatum); experiment: Test E pre-/postemergence plant response; conditions: scale 0 to 100
Method in brief: as §1

[6] = tested on: pitted morningglory (Ipomoea lacunosa); experiment: Test E pre-/postemergence plant response; conditions: scale 0 to 100
Method in brief: as §1

[7] = tested on: common groundsel (Senecio vulgaris); experiment: Test E pre-/postemergence plant response; conditions: scale 0 to 100
Method in brief: as §1

[8] = tested on: barnyardgrass (Echinochloa crus-galli); experiment: Test E pre-/postemergence plant response
Method in brief: as §1

[9] = tested on: green foxtail (Setaria viridis); experiment: Test E pre-/postemergence plant response; conditions: scale 0 to 100
Method in brief: as §1

[10] = tested on: quackgrass (Elytrigia repens); experiment: Test E pre-/postemergence plant response; conditions: scale 0 to 100
Method in brief: as §1

[11] = tested on: goosegrass (Eleusine indica); experiment: Test E pre-/postemergence plant response; conditions: scale 0 to 100
Method in brief: as §1

[12] = tested on: annual bluegrass (Poa annua); experiment: Test E pre-/postemergence plant response; conditions: scale 0 to 100
Method in brief: as §1

[13] = tested on: black mustard (Brassica nigra); experiment: Test E pre-/postemergence plant response; conditions: scale 0 to 100
Method in brief: as §1

[14] = tested on: canarygrass (Phalaris minor); experiment: Test A pre-/postemergence plant response
Method in brief: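 Seeds in loam soil/sand blend treated preemergence by directed soil spray, with simultaneous postemergence spray on 2–10 cm plants at one- to two-leaf stage; compounds in non-phytotoxic solvent with surfactant. Injury visually rated versus untreated controls after about 10 days in greenhouse, 0 (no effect) to 100 (complete control).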

[15] = Postemergence, 31 g ai/ha, 0 to 100 scale, 0 no effect, 100 complete control
[16] = Postemergence, 125 g ai/ha, 0 to 100 scale, 0 no effect, 100 complete control
[17] = Preemergence, 31 g ai/ha, 0 to 100 scale, 0 is no effect, 100 is complete control
[18] = Preemergence, 125 g ai/ha, 0 to 100 scale (0 no effect, 100 complete control)

CCc1cc(-c2ccc(C(F)(F)F)cc2)nn1-c1c(OC(=O)OC(C)C)cnn(C)c1=O [Compound 12]
Plant response rating, Mallow ([1]; 4 g ai/ha, Postemergence): 0
Plant response rating, Mallow ([1]; 31 g ai/ha, Preemergence): 0
Plant response rating, Mallow ([1]; Postemergence, 8 g ai/ha): 0
Plant response rating, Mallow ([1]; Postemergence, 31 g ai/ha): 0
Plant response rating, Mallow ([1]; Preemergence, 4 g ai/ha): 0
Plant response rating, Ryegrass, Italian ([2]; 4 g ai/ha, Postemergence): 75
Plant response rating, Ryegrass, Italian ([2]; 31 g ai/ha, Preemergence): 98
Plant response rating, Ryegrass, Italian ([2]; Postemergence, 8 g ai/ha): 100
Plant response rating, Ryegrass, Italian ([2]; Postemergence, 31 g ai/ha): 100
Plant response rating, Ryegrass, Italian ([2]; Preemergence, 4 g ai/ha): 40
Plant response rating, Purslane ([3]; 4 g ai/ha, Postemergence): 0
Plant response rating, Purslane ([3]; 31 g ai/ha, Preemergence): 0
Plant response rating, Purslane ([3]; Postemergence, 8 g ai/ha): 0
Plant response rating, Purslane ([3]; Postemergence, 31 g ai/ha): 0
Plant response rating, Purslane ([3]; Preemergence, 4 g ai/ha): 0
Plant response rating, Guineagrass ([4]; 4 g ai/ha, Postemergence): 95
Plant response rating, Guineagrass ([4]; 31 g ai/ha, Preemergence): 100
Plant response rating, Guineagrass ([4]; Postemergence, 8 g ai/ha): 95
Plant response rating, Guineagrass ([4]; Postemergence, 31 g ai/ha): 95
Plant response rating, Guineagrass ([4]; Preemergence, 4 g ai/ha): 0
Plant response rating, Dallisgrass ([5]; 4 g ai/ha, Postemergence): 65
Plant response rating, Dallisgrass ([5]; 8 g ai/ha, Preemergence): 40
Plant response rating, Dallisgrass ([5]; 31 g ai/ha, Preemergence): 100
Plant response rating, Dallisgrass ([5]; Postemergence, 8 g ai/ha): 75
Plant response rating, Dallisgrass ([5]; Postemergence, 31 g ai/ha): 85
Plant response rating, Dallisgrass ([5]; Preemergence, 4 g ai/ha): 0
Plant response rating, Morningglory ([6]; 4 g ai/ha, Postemergence): 0
Plant response rating, Morningglory ([6]; 31 g ai/ha, Preemergence): 0
Plant response rating, Morningglory ([6]; Postemergence, 8 g ai/ha): 0
Plant response rating, Morningglory ([6]; Postemergence, 31 g ai/ha): 0
Plant response rating, Morningglory ([6]; Preemergence, 4 g ai/ha): 0
Plant response rating, Groundsel ([7]; 4 g ai/ha, Postemergence): 0
Plant response rating, Groundsel ([7]; 31 g ai/ha, Preemergence): 0
Plant response rating, Groundsel ([7]; Postemergence, 8 g ai/ha): 0
Plant response rating, Groundsel ([7]; Postemergence, 31 g ai/ha): 0
Plant response rating, Groundsel ([7]; Preemergence, 4 g ai/ha): 0
Plant response rating, Barnyardgrass ([8]; 4 g ai/ha, Postemergence, scale 0 to 100): 90
Plant response rating, Barnyardgrass ([8]; 8 g ai/ha, Preemergence, scale 0 to 100): 70
Plant response rating, Barnyardgrass ([8]; 31 g ai/ha, Preemergence, scale 0 to 100): 95
Plant response rating, Barnyardgrass ([8]; Postemergence, 8 g ai/ha, scale 0 to 100): 100
Plant response rating, Barnyardgrass ([8]; Postemergence, 31 g ai/ha, scale 0 to 100): 100
Plant response rating, Barnyardgrass ([8]; Preemergence, 4 g ai/ha, scale 0 to 100, 0 no effect, 100 complete control): 20
Plant response rating, Foxtail, Green ([9]; 4 g ai/ha, Postemergence): 30
Plant response rating, Foxtail, Green ([9]; 8 g ai/ha, Preemergence): 60
Plant response rating, Foxtail, Green ([9]; 31 g ai/ha, Preemergence): 100
Plant response rating, Foxtail, Green ([9]; Postemergence, 8 g ai/ha): 90
Plant response rating, Foxtail, Green ([9]; Postemergence, 31 g ai/ha): 100
Plant response rating, Foxtail, Green ([9]; Preemergence, 4 g ai/ha): 0
Plant response rating, Quackgrass ([10]; 4 g ai/ha, Postemergence): 20
Plant response rating, Quackgrass ([10]; 31 g ai/ha, Preemergence): 80
Plant response rating, Quackgrass ([10]; Postemergence, 8 g ai/ha): 30
Plant response rating, Quackgrass ([10]; Postemergence, 31 g ai/ha): 95
Plant response rating, Quackgrass ([10]; Preemergence, 4 g ai/ha): 0
Plant response rating, Goosegrass ([11]; 4 g ai/ha, Postemergence): 10
Plant response rating, Goosegrass ([11]; 8 g ai/ha, Preemergence): 65
Plant response rating, Goosegrass ([11]; 31 g ai/ha, Preemergence): 75
Plant response rating, Goosegrass ([11]; Postemergence, 8 g ai/ha): 30
Plant response rating, Goosegrass ([11]; Postemergence, 31 g ai/ha): 90
Plant response rating, Goosegrass ([11]; Preemergence, 4 g ai/ha): 25
Plant response rating, Bluegrass ([12]; 4 g ai/ha, Postemergence): 0
Plant response rating, Bluegrass ([12]; 8 g ai/ha, Preemergence): 0
Plant response rating, Bluegrass ([12]; 31 g ai/ha, Preemergence): 0
Plant response rating, Bluegrass ([12]; Postemergence, 8 g ai/ha): 0
Plant response rating, Bluegrass ([12]; Postemergence, 31 g ai/ha): 0
Plant response rating, Bluegrass ([12]; Preemergence, 4 g ai/ha): 0
Plant response rating, Mustard, Black ([13]; 4 g ai/ha, Postemergence): 0
Plant response rating, Mustard, Black ([13]; 8 g ai/ha, Preemergence): 0
Plant response rating, Mustard, Black ([13]; 31 g ai/ha, Preemergence): 0
Plant response rating, Mustard, Black ([13]; Postemergence, 8 g ai/ha): 0
Plant response rating, Mustard, Black ([13]; Postemergence, 31 g ai/ha): 0
Plant response rating, Mustard, Black ([13]; Preemergence, 4 g ai/ha): 0

CCCc1cc(-c2ccc(C(F)(F)F)cc2)nn1-c1c(O)cnn(C)c1=O [Compound 72]
Plant response rating, Canarygrass [14, 15]: 40
Plant response rating, Canarygrass [14, 16]: 100
Plant response rating, Canarygrass [14, 17]: 50
Plant response rating, Canarygrass [14, 18]: 80

CCc1cc(-c2ccc(Br)cc2)nn1-c1c(O)cnn(CC(F)(F)F)c1=O [Compound 73]
Plant response rating, Canarygrass [14, 15]: 20
Plant response rating, Canarygrass [14, 16]: 100
Plant response rating, Canarygrass [14, 17]: 30

CCc1cc(-c2ccc(Br)cc2)nn1-c1c(O)c(C)nn(C)c1=O [Compound 74]
Plant response rating, Canarygrass [14, 15]: 100
Plant response rating, Canarygrass [14, 16]: 100
Plant response rating, Canarygrass [14, 17]: 80
Plant response rating, Canarygrass [14, 18]: 100

CCCc1cc(-c2ccc(Cl)cc2)nn1-c1c(O)cnn(C)c1=O [Compound 76]
Plant response rating, Canarygrass [14, 15]: 40
Plant response rating, Canarygrass [14, 16]: 100
Plant response rating, Canarygrass [14, 17]: 30
Plant response rating, Canarygrass [14, 18]: 70

Cc1cc(-c2ccc(Br)cc2)nn1-c1c(O)cnn(C2CCCCO2)c1=O (stereo not drawn) [Compound 77, 4-[3-(4-bromophenyl)-5-methyl-1H-pyrazol-1-yl]-5-hydroxy-2-(tetrahydro-2H-pyran-2-yl)-3(2H)-pyridazinone]
Plant response rating, Canarygrass [14, 16]: 60
Plant response rating, Canarygrass ([14]; Postemergence, 500 g ai/ha, 0 to 100 scale, 0 no effect, 100 complete control): 100
Plant response rating, Canarygrass ([14]; Preemergence, 500 g ai/ha, 0 to 100 scale (0 no effect, 100 complete control)): 90

Cc1nn(C)c(=O)c(-c2nc(-c3ccc(Cl)cc3)sc2C)c1O [Compound 79, 4-[2-(4-chlorophenyl)-5-methyl-4-thiazolyl]-5-hydroxy-2,6-dimethyl-3(2H)-pyridazinone]
Plant response rating, Canarygrass [14, 15]: 40
Plant response rating, Canarygrass [14, 16]: 90
Plant response rating, Canarygrass [14, 17]: 0
Plant response rating, Canarygrass [14, 18]: 100

COc1nn(C)c(=O)c(-n2nc(-c3ccc(Br)cc3)cc2C)c1O [Compound 82]
Plant response rating, Canarygrass [14, 15]: 100
Plant response rating, Canarygrass [14, 16]: 100
Plant response rating, Canarygrass [14, 17]: 20
Plant response rating, Canarygrass [14, 18]: 100

CCc1c(C)c(-c2ccc(Br)cc2)nn1-c1c(O)cnn(C)c1=O [Compound 83]
Plant response rating, Canarygrass [14, 15]: 70
Plant response rating, Canarygrass [14, 16]: 100
Plant response rating, Canarygrass [14, 18]: 90

Cc1cn(-c2ccc(C(F)(F)F)cc2)nc1-c1c(O)cnn(C)c1=O [Compound 85, 5-hydroxy-2-methyl-4-[4-methyl-1-[4-(trifluoromethyl)phenyl]-1H-pyrazol-3-yl]-3(2H)-pyridazinone]
Plant response rating, Canarygrass [14, 15]: 0
Plant response rating, Canarygrass [14, 16]: 20
Plant response rating, Canarygrass [14, 17]: 40
Plant response rating, Canarygrass [14, 18]: 70

Cn1ncc(O)c(-c2nn(-c3ccc(C(F)(F)F)cc3)cc2Br)c1=O [Compound 87, 4-[4-bromo-1-[4-(trifluoromethyl)phenyl]-1H-pyrazol-3-yl]-5-hydroxy-2-methyl-3(2H)-pyridazinone]
Plant response rating, Canarygrass [14, 15]: 10
Plant response rating, Canarygrass [14, 16]: 70
Plant response rating, Canarygrass [14, 17]: 0
Plant response rating, Canarygrass [14, 18]: 90
